# From PubChem BioAssay AID2060503 (Molecular Pharmacology Branch, DTP, NCI, 2025)
# System: 817829-284-R-J1-PDC complex spheroids, viability
# Test: Anticancer human tumor 817829-284-R-J1-PDC patient-derived colon adenocarcinoma cell line growth inhibition [GQUAD]
# Conditions: for IC50: curve of first compound; for viability, T/C: stronger effect = lower value
# In short: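 Multi-cell-type spheroids of tumor cells with HUVEC and mesenchymal stem cells, treated with drug combinations. Concentrations descend in half-log steps from near clinical Cmax, or from 10 microM where Cmax is unknown; viability read-out.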
# [1] = second compound 0.0316 µM, first compound 0.0316 µM
# [2] = second compound 0.0316 µM, first compound 0.1 µM
# [3] = second compound 0.0316 µM, first compound 0.316 µM
# [4] = second compound 0.0316 µM, first compound 1 µM
# [5] = second compound 0.0316 µM, first compound 3.16 µM
# [6] = second compound 0.0316 µM, first compound 10 µM
# [7] = second compound 0.1 µM, first compound 0.0316 µM
# [8] = second compound 0.1 µM, first compound 0.1 µM
# [9] = second compound 0.1 µM, first compound 0.316 µM
# [10] = second compound 0.1 µM, first compound 1 µM
# [11] = second compound 0.1 µM, first compound 3.16 µM
# [12] = second compound 0.1 µM, first compound 10 µM
# [13] = second compound 0.316 µM, first compound 0.0316 µM
# [14] = second compound 0.316 µM, first compound 0.1 µM
# [15] = second compound 0.316 µM, first compound 0.316 µM
# [16] = second compound 0.316 µM, first compound 1 µM
# [17] = second compound 0.316 µM, first compound 3.16 µM
# [18] = second compound 0.316 µM, first compound 10 µM
# [19] = second compound 1 µM, first compound 0.0316 µM
# [20] = second compound 1 µM, first compound 0.1 µM
# [21] = second compound 1 µM, first compound 0.316 µM
# [22] = second compound 1 µM, first compound 1 µM
# [23] = second compound 1 µM, first compound 3.16 µM
# [24] = second compound 1 µM, first compound 10 µM
# [25] = second compound 3.16 µM, first compound 0.0316 µM
# [26] = second compound 3.16 µM, first compound 0.1 µM
# [27] = second compound 3.16 µM, first compound 0.316 µM
# [28] = second compound 3.16 µM, first compound 1 µM
# [29] = second compound 3.16 µM, first compound 3.16 µM
# [30] = second compound 3.16 µM, first compound 10 µM
# [31] = second compound 10 µM, first compound 0.0316 µM
# [32] = second compound 10 µM, first compound 0.1 µM
# [33] = second compound 10 µM, first compound 0.316 µM
# [34] = second compound 10 µM, first compound 1 µM
# [35] = second compound 10 µM, first compound 3.16 µM
# [36] = second compound 10 µM, first compound 10 µM
# 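Further: spheroids exposed to agents for 7 days before readout.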
# 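Wherever viability, T/C is given: percent viability relative to DMSO vehicle control taken as 100%.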
structure (smiles),measurement,setting,value
O=C(NO)c1cnc(N2CCN(S(=O)(=O)c3ccc4ccccc4c3)CC2)nc1 + Cc1[nH]c2ccc(F)cc2c1-c1nc2c3cccnc3c3ncccc3c2[nH]1,IC50,second compound 0.0316 µM,166 nM
same,IC50,second compound 0.1 µM,189 nM
same,IC50,second compound 0.316 µM,195 nM
same,IC50,second compound 1 µM,186 nM
same,IC50,second compound 3.16 µM,< 31.6 nM
same,IC50,second compound 10 µM,< 31.6 nM
same,"viability, T/C",[1],97%
same,"viability, T/C",[2],88.9%
same,"viability, T/C",[3],0.76%
same,"viability, T/C",[4],0.18%
same,"viability, T/C",[5],0.1%
same,"viability, T/C",[6],0.14%
same,"viability, T/C",[7],101%
same,"viability, T/C",[8],120%
same,"viability, T/C",[9],1.55%
same,"viability, T/C",[10],0.16%
same,"viability, T/C",[11],0.08%
same,"viability, T/C",[12],0.16%
same,"viability, T/C",[13],101%
same,"viability, T/C",[14],128%
same,"viability, T/C",[15],3.53%
same,"viability, T/C",[16],0.12%
same,"viability, T/C",[17],0.08%
same,"viability, T/C",[18],0.15%
same,"viability, T/C",[19],118%
same,"viability, T/C",[20],106%
same,"viability, T/C",[21],1.91%
same,"viability, T/C",[22],0.1%
same,"viability, T/C",[23],0.08%
same,"viability, T/C",[24],0.14%
same,"viability, T/C",[25],9.69%
same,"viability, T/C",[26],13.6%
same,"viability, T/C",[27],0.27%
same,"viability, T/C",[28],0.1%
same,"viability, T/C",[29],0.08%
same,"viability, T/C",[30],0.13%
same,"viability, T/C",[31],5.27%
same,"viability, T/C",[32],7.46%
same,"viability, T/C",[33],0.18%
same,"viability, T/C",[34],0.12%
same,"viability, T/C",[35],0.17%
same,"viability, T/C",[36],0.15%
CC1COCCN1c1cc(-c2ccnn2C)c2ccnc(-c3ccn[nH]3)c2n1 (stereo not drawn) + Cc1cnc(CNC(=O)c2c(=O)c3ccc(N4CCCN(C)CC4)nc3n3c2sc2ccccc23)cn1,IC50,second compound 0.0316 µM,< 31.6 nM
same,IC50,second compound 0.1 µM,< 31.6 nM
same,IC50,second compound 0.316 µM,< 31.6 nM
same,IC50,second compound 1 µM,< 31.6 nM
same,IC50,second compound 3.16 µM,< 31.6 nM
same,IC50,second compound 10 µM,< 31.6 nM
same,"viability, T/C",[1],14.8%
same,"viability, T/C",[2],9.78%
same,"viability, T/C",[3],9.09%
same,"viability, T/C",[4],7.06%
same,"viability, T/C",[5],6.16%
same,"viability, T/C",[6],4.96%
same,"viability, T/C",[7],13.3%
same,"viability, T/C",[8],11.1%
same,"viability, T/C",[9],8.18%
same,"viability, T/C",[10],6.54%
same,"viability, T/C",[11],6.01%
same,"viability, T/C",[12],3.97%
same,"viability, T/C",[13],15%
same,"viability, T/C",[14],11.9%
same,"viability, T/C",[15],8.36%
same,"viability, T/C",[16],6.17%
same,"viability, T/C",[17],5.71%
same,"viability, T/C",[18],4.08%
same,"viability, T/C",[19],13.8%
same,"viability, T/C",[20],14.1%
same,"viability, T/C",[21],9.19%
same,"viability, T/C",[22],6.22%
same,"viability, T/C",[23],5.53%
same,"viability, T/C",[24],3.34%
same,"viability, T/C",[25],11.8%
same,"viability, T/C",[26],12.1%
same,"viability, T/C",[27],8.66%
same,"viability, T/C",[28],6.72%
same,"viability, T/C",[29],3.24%
same,"viability, T/C",[30],2.62%
same,"viability, T/C",[31],0.06%
same,"viability, T/C",[32],0.09%
same,"viability, T/C",[33],0.11%
same,"viability, T/C",[34],0.08%
same,"viability, T/C",[35],0.12%
same,"viability, T/C",[36],0.12%
CC1COCCN1c1cc(C2(S(C)(=N)=O)CC2)nc(-c2ccnc3[nH]ccc23)n1 (stereo not drawn) + Cc1cnc(CNC(=O)c2c(=O)c3ccc(N4CCCN(C)CC4)nc3n3c2sc2ccccc23)cn1,IC50,second compound 0.0316 µM,200 nM
same,IC50,second compound 0.1 µM,< 31.6 nM
same,IC50,second compound 0.316 µM,< 31.6 nM
same,IC50,second compound 1 µM,< 31.6 nM
same,IC50,second compound 3.16 µM,< 31.6 nM
same,IC50,second compound 10 µM,< 31.6 nM
same,"viability, T/C",[1],82.8%
same,"viability, T/C",[2],71.1%
same,"viability, T/C",[3],36.1%
same,"viability, T/C",[4],15.2%
same,"viability, T/C",[5],12.5%
same,"viability, T/C",[6],10.4%
same,"viability, T/C",[7],47.3%
same,"viability, T/C",[8],37.9%
same,"viability, T/C",[9],24.1%
same,"viability, T/C",[10],14.4%
same,"viability, T/C",[11],11.4%
same,"viability, T/C",[12],8.15%
same,"viability, T/C",[13],29.1%
same,"viability, T/C",[14],29.6%
same,"viability, T/C",[15],22.2%
same,"viability, T/C",[16],16.5%
same,"viability, T/C",[17],12.6%
same,"viability, T/C",[18],9.19%
same,"viability, T/C",[19],29.2%
same,"viability, T/C",[20],27.2%
same,"viability, T/C",[21],21.3%
same,"viability, T/C",[22],17.1%
same,"viability, T/C",[23],10.8%
same,"viability, T/C",[24],8.91%
same,"viability, T/C",[25],21.5%
same,"viability, T/C",[26],23.8%
same,"viability, T/C",[27],22.3%
same,"viability, T/C",[28],15.2%
same,"viability, T/C",[29],12.8%
same,"viability, T/C",[30],8.2%
same,"viability, T/C",[31],0.17%
same,"viability, T/C",[32],0.16%
same,"viability, T/C",[33],0.21%
same,"viability, T/C",[34],0.24%
same,"viability, T/C",[35],0.23%
same,"viability, T/C",[36],0.24%
COc1ccc([C@@H](O)c2cc(-c3ncnc4cc(N5CCOCC5)ccc34)c(F)cc2Cl)nn1 + Cc1cnc(CNC(=O)c2c(=O)c3ccc(N4CCCN(C)CC4)nc3n3c2sc2ccccc23)cn1,IC50,second compound 0.0316 µM,239 nM
same,IC50,second compound 0.1 µM,< 31.6 nM
same,IC50,second compound 0.316 µM,< 31.6 nM
same,IC50,second compound 1 µM,< 31.6 nM
same,IC50,second compound 3.16 µM,< 31.6 nM
same,IC50,second compound 10 µM,< 31.6 nM
same,"viability, T/C",[1],81.7%
same,"viability, T/C",[2],75.5%
same,"viability, T/C",[3],41%
same,"viability, T/C",[4],31.2%
same,"viability, T/C",[5],27.9%
same,"viability, T/C",[6],20.9%
same,"viability, T/C",[7],42%
same,"viability, T/C",[8],37.5%
same,"viability, T/C",[9],31.9%
same,"viability, T/C",[10],24.2%
same,"viability, T/C",[11],24.2%
same,"viability, T/C",[12],19.3%
same,"viability, T/C",[13],27.7%
same,"viability, T/C",[14],29.7%
same,"viability, T/C",[15],24%
same,"viability, T/C",[16],22%
same,"viability, T/C",[17],22.8%
same,"viability, T/C",[18],18%
same,"viability, T/C",[19],25.1%
same,"viability, T/C",[20],25.6%
same,"viability, T/C",[21],25.1%
same,"viability, T/C",[22],17.7%
same,"viability, T/C",[23],18.2%
same,"viability, T/C",[24],12.7%
same,"viability, T/C",[25],21.2%
same,"viability, T/C",[26],22.7%
same,"viability, T/C",[27],21.6%
same,"viability, T/C",[28],17%
same,"viability, T/C",[29],15%
same,"viability, T/C",[30],8.95%
same,"viability, T/C",[31],0.12%
same,"viability, T/C",[32],0.16%
same,"viability, T/C",[33],0.18%
same,"viability, T/C",[34],0.23%
same,"viability, T/C",[35],0.2%
same,"viability, T/C",[36],0.19%
